{"source": "patent US20080248131A1", "about": "(Metaproteomics, LLC, priority 2005, published 2008)", "key": {"[1]": {"system": "IL-6 secretion, 3T3-L1 adipocytes", "experiment": "IL-6 secretion from TNFα-treated 3T3-L1 adipocytes", "conditions": "10 ng TNFα/ml"}, "[2]": {"system": "adiponectin secretion, 3T3-L1 adipocytes", "experiment": "Adiponectin secretion from insulin-resistant 3T3-L1 adipocytes", "assay_type": "cell-based, murine"}, "DBA/J mice": {"system": "DBA/J mice", "experiment": "Collagen induced rheumatoid arthritis murine model, arthritic index", "assay_type": "in vivo, mouse", "conditions": "10 mg/kg", "method": "The mice were injected intradermally on day 0 with a mixture containing 100 μg of type II collagen and 100 μg of Mycobacterium tuberculosis in squalene. A booster injection was repeated on day 21. Mice were examined on days 22-27 for arthritic signs with nonresponding mice removed from the study.\nArthritic symptomology was assessed (scored 0-4) for each paw using a arthritic index as described below. Under this arthritic index 0=no visible signs; 1=edema and/or erythema: single digit; 2=edema and or erythema: two joints; 3=edema and or erythema: more than two joints; and 4=severe arthritis of the entire paw and digits associated with ankylosis and deformity."}, "[3]": {"system": "adiponectin secretion, 3T3-L1 adipocytes", "experiment": "Adiponectin secretion in LPS/3T3-L1 adipocytes", "assay_type": "cell-based, murine"}, "[4]": {"system": "adiponectin secretion, 3T3-L1 adipocytes", "experiment": "Adiponectin secretion from TNFα-treated 3T3-L1 adipocytes", "assay_type": "cell-based, murine", "conditions": "10 ng TNFα/ml", "method": "3T3-L1 cells were seeded at an initial density of 1×10^4 cells/cm^2 in 96-well plates. For two days, the cells were allowed grow to reach confluence. Following confluence, the cells were forced to differentiate into adipocytes by the addition of differentiation medium; this medium consisted of (1) 10% FBS/DMEM (high glucose); (2) 0.5 mM methylisobutylxanthine; (3) 0.5 μM dexamethasone and (4) 10 μg/ml insulin (MDI medium). From Day 3 through Day 5, the medium was changed to post-differentiation medium consisting of 10% FBS in DMEM. […] On Day 6, the supernatant medium was sampled for adiponectin determination.\nStatistical Calculations and Interpretation—All assays were preformed in duplicate. […] Differences among the doses and test agents were determined using the Student's t-test without correction for multiple comparisons; the nominal five percent probability of a type I error was selected."}, "[5]": {"system": "NF-kBp65 nuclear translocation", "experiment": "Nuclear NF-kBp65 in TNFα-treated 3T3-L1 adipocytes", "assay_type": "cell-based, murine", "conditions": "three or 24 hours", "experimental": "Cell Culture and Treatment—Following differentiation 3T3-L1 adipocytes were maintained in post-differentiation medium for an additional 40 days. […] Hops derivatives and the positive control pioglitazone were tested at concentrations of 2.5, and 5.0 μg/ml. Test materials were added 1 hour prior to and nuclear extracts were prepared three and 24 hours following treatment with TNFα.\nELISA—3T3-L1 adipocytes were maintained in growth media for 40 days following differentiation. Nuclear NF-kBp65 was determined using the TransAM™ NF-kB kit from Active Motif (Carlsbad, Calif.) was used with no modifications. Jurkat nuclear extracts provided in the kit were derived from cells cultured in medium supplemented with 50 ng/ml TPA (phorbol, 12-myristate, 13 acetate) and 0.5 μM calcium ionophore A23187 for two hours at 37° C. immediately prior to harvesting.\nProtein assay—Nuclear protein was quantified using the Active Motif Fluorescent Protein Quantification Kit."}, "[6]": {"system": "human PI3K-β, PI3K-γ, and PI3K-δ", "experiment": "PI3K isoform inhibition (Example 3)", "assay_type": "biochemical", "conditions": "50 μg/ml", "experimental": "Additionally examined was an Acacia nilotica heartwood extract. All compounds were tested at 50 μg/ml. The results are presented graphically as FIG. 3. […] Mg-IAA was approximately 3-fold more inhibitory to PI3K-β than to PI3K-γ or PI3K-δ."}}, "data": [{"smiles": "COc1ccc2c(c1)c(CC(=O)O)c(C)n2C(=O)c1ccc(Cl)cc1", "note": "[indomethacin]", "values": [{"measurement": "IL-6 secretion in presence of TNFα, in words", "setting": "[1]", "value": "no anti-inflammatory effect"}]}, {"smiles": "CC(C)CCC1=C(O)C(C(=O)C(C)C)=C(O)C(CCC(C)C)(CCC(C)C)C1=O", "note": "[hexahydro colupulone]", "values": [{"measurement": "concentration of maximal observed adiponectin secretion", "setting": "[2]", "value": 12.5, "unit": "µg/mL"}]}, {"smiles": "C[C@]12C=CC(=O)C=C1CC[C@@H]1[C@@H]2[C@@H](O)C[C@@]2(C)[C@H]1CC[C@]2(O)C(=O)CO", "note": "[prednisolone]", "values": [{"measurement": "days with significant reduction of arthritic index", "setting": "DBA/J mice", "value": "days 30-42"}]}, {"smiles": "O=C(O)c1ccccc1O", "note": "[salicylic acid]", "values": [{"measurement": "adiponectin secretion in LPS-treated adipocytes, in words", "setting": "[3]", "value": "failed to induce adiponectin secretion"}]}, {"smiles": "CCc1ccc(CCOc2ccc(CC3SC(=O)NC3=O)cc2)nc1", "note": "(centres unmarked) [pioglitazone]", "values": [{"measurement": "maximal restoration of adiponectin secretion, times the TNFα treatment", "setting": "[4]", "value": 1.47, "unit": "times"}, {"measurement": "nuclear NF-kBp65, in words", "setting": "[5]", "value": "did not inhibit"}]}, {"smiles": "COc1cc(O)c(CC=C(C)C)c(O)c1C(=O)/C=C/c1ccc(O)cc1", "note": "[xanthohumol]", "values": [{"measurement": "effect on PI3K isoforms, in words", "setting": "[6]", "value": "more inhibitory to PI3K-γ than to PI3K-β or PI3K-δ"}]}, {"smiles": "CC(=O)Oc1ccccc1C(=O)O", "note": "[Aspirin, aspirin]", "values": [{"measurement": "adiponectin secretion in LPS-treated adipocytes, in words", "setting": "[3]", "value": "failed to induce adiponectin secretion"}]}]}
